Test results taken from patent US8088936B2, “Leukotriene B4 inhibitors” (Hoffman-La Roche Inc., priority 2009, dated 2012).

Test system: Human leukemia HL-60 cells endogenously expressing BLT1 and BLT2 receptors
Experiment: Ca2+ flux assay for LTB4 antagonist assay (HL-60 FLIPR)
Format: cell-based
Settings: retinoic acid induced HL-60 cells, inhibition of LTB4-induced Ca2+ flux, 30 min preincubation; read-out: LTB4 antagonism (HL-60 FLIPR)
Method: Assay of Compounds for Inhibition of LTB4 Activity
Ca^2+Flux Assay for LTB4 Antagonist Assay
Human leukemia HL-60 cells endogenously expressing BLT1 and BLT2 receptors were cultured in RPMI-1640 medium supplemented with 20% fetal bovine serum, 2 mM glutamine, 100 U/ml penicillin and 100 ug/ml streptomycin.
Seventy two hours prior to experiment cells are counted using ViaCount reagent, centrifuged and resuspended at 2.0×10^5 cells/ml density with the complete growth media containing 1 μM Retinoic Acid (Sigma).
On a day of the experiment loading buffer (Calcium-3 Assay Kit, Molecular Devices) was prepared by dissolving the contents of one vial (Express Kit) into 500 ml Hank's Balanced Salt Solution containing 20 mM HEPES and 5 mM probenecid. Equal volume of the loading buffer was mixed with the replacement buffer (Hank's Balanced Salt Solution containing 20 mM HEPES, 0.05% BSA and 5 mM probenecid). Retinoic Acid induced HL-60 cells were counted using ViaCount reagent, centrifuged and resuspended at 2.0×10^6 cells/ml density with the loading buffer/replacement buffer, dispensed into 384 well black/clear microplates (Falcon) (25 μl/well) and placed in a 37° C./5% CO2 incubator for 1 hour.
During the incubation, test compounds were prepared at 6× the desired concentration in HBSS/20 mM HEPES/0.05% BSA as well as LTB4 (Biomol) was prepared at 2.2× concentration in HBSS/20 mM HEPES/0.5% BSA buffer.
After the incubation, both the cell and compound plates were brought to the FLIPR and 5 μl of the diluted compounds were transferred to the cell plates by the FLIPR. Plates were then incubated for 30 min at room temperature. After the ½ hour incubation, plates were returned to the FLIPR and 25 μl of 2.2×LTB4 was added to the cell plates. During the assay, fluorescence readings were taken simultaneously from all 384 wells of the cell plate every 1.5 seconds. Five readings were taken to establish a stable baseline, then 25 μl (LTB4) of sample was rapidly and simultaneously added to each well of the cell plate. The fluorescence was continuously monitored before, during and after sample addition for a total elapsed time of 100 seconds. Responses (increase in peak fluorescence) in each well following agonist addition was determined. The initial fluorescence reading from each well, prior to ligand stimulation, was used a zero baseline value for the data from that well. The responses are expressed as % inhibition of the neutral control (neural control: wells that received buffer plus DMSO but no test compound).

Row | Structure (SMILES) | IC50 [nM]
1 | COCc1cc(OCCCCCCc2cccc(OCCCC(=O)O)c2CCC(=O)O)cc(-c2cc(F)cc(F)c2)c1 [Example 16, 4-{2-(2-Carboxy-ethyl)-3-[6-(3′,5′-difluoro-5-methoxymethyl-biphenyl-3-yloxy)-hexyl]-phenoxy}-butyric acid] | 14.8
2 | COCc1cc(OCCCCCCc2cccc(OCCCC(=O)O)c2CCC(=O)O)cc(-c2cccc(Cl)c2)c1 [Example 18, 4-{2-(2-Carboxy-ethyl)-3-[6-(3′-chloro-5-methoxymethyl-biphenyl-3-yloxy)-hexyl]-phenoxy}-butyric acid] | 13.4
3 | COCc1cc(OCCCCCCc2cccc(OCCCC(=O)O)c2CCC(=O)O)cc(-c2cccc(OC)c2)c1 [Example 19, 4-{2-(2-Carboxy-ethyl)-3-[6-(3′-methoxy-5-methoxymethyl-biphenyl-3-yloxy)-hexyl]-phenoxy}-butyric acid] | 9.44
4 | COCc1cc(OCCCCCCc2cccc(OCCCC(=O)O)c2CCC(=O)O)cc(-c2ccc(OC(F)(F)F)cc2)c1 [Example 20, 4-{2-(2-Carboxy-ethyl)-3-[6-(5-methoxymethyl-4′-trifluoromethoxy-biphenyl-3-yloxy)-hexyl]-phenoxy}-butyric acid] | 15.1
5 | COCc1cc(OCCCCCCc2cccc(OCCCC(=O)O)c2CCC(=O)O)cc(-c2cncnc2)c1 [Example 22, 4-[2-(2-Carboxy-ethyl)-3-[6-(3-methoxymethyl-5-pyrimidin-5-yl-phenoxy)-hexyl]-phenoxy]-butyric acid] | 339
6 | COCc1cc(OCCCCCCc2cccc(OCCCC(=O)O)c2CCC(=O)O)cc(-c2ccc3[nH]ccc3c2)c1 [Example 23, 4-[2-(2-Carboxy-ethyl)-3-{6-[3-(1H-indol-5-yl)-5-methoxymethyl-phenoxy]-hexyl}-phenoxy]-butyric acid] | 30.2
7 | COCc1cc(OCCCCCCc2cccc(OCCCC(=O)O)c2CCC(=O)O)cc(-c2ccc(S(C)(=O)=O)cc2)c1 [Example 24, 4-[2-(2-Carboxy-ethyl)-3-[6-(4′-methanesulfonyl-5-methoxymethyl-biphenyl-3-yloxy)-hexyl]-phenoxy]-butyric acid] | 6.83
8 | CCOCc1cc(OCCCCCCc2cccc(OCCCC(=O)O)c2CCC(=O)O)cc(-c2ccc(F)cc2)c1 [Example 26, 4-{2-(2-Carboxy-ethyl)-3-[6-(5-ethoxymethyl-4′-fluoro-biphenyl-3-yloxy)-hexyl]-phenoxy}-butyric acid] | 11.9
9 | CCOCc1cc(OCCCCCCc2cccc(OCCCC(=O)O)c2CCC(=O)O)cc(-c2ccc(C(F)(F)F)cc2)c1 [Example 27, 4-{2-(2-Carboxy-ethyl)-3-[6-(5-ethoxymethyl-4′-trifluoromethyl-biphenyl-3-yloxy)-hexyl]-phenoxy}-butyric acid] | 6.24
10 | CCOCc1cc(OCCCCCCc2cccc(OCCCC(=O)O)c2CCC(=O)O)cc(-c2ccc(Cl)cc2)c1 [Example 28, 4-{2-(2-Carboxy-ethyl)-3-[6-(5-ethoxymethyl-4′-chloro-biphenyl-3-yloxy)-hexyl]-phenoxy}-butyric acid] | 6.51
11 | CCOCc1cc(OCCCCCCc2cccc(OCCCC(=O)O)c2CCC(=O)O)cc(-c2ccc(S(C)(=O)=O)cc2)c1 [Example 29, 4-[2-(2-Carboxy-ethyl)-3-[6-(5-ethoxymethyl-4′-methanesulfonyl-biphenyl-3-yloxy)-hexyl]-phenoxy]-butyric acid] | 16

Now those with a lower IC50, led by results:

Row | IC50 [nM] | Structure (SMILES)
12 | 5.98 | COCc1cc(OCCCCCCc2cccc(OCCCC(=O)O)c2CCC(=O)O)cc(-c2ccccc2F)c1 [Example 15, 4-{2-(2-Carboxy-ethyl)-3-[6-(2′-fluoro-5-methoxymethyl-biphenyl-3-yloxy)-hexyl]-phenoxy}-butyric acid]
13 | 2.66 | COCc1cc(OCCCCCCc2cccc(OCCCC(=O)O)c2CCC(=O)O)cc(-c2ccc(F)c(F)c2)c1 [Example 21, 4-[2-(2-Carboxy-ethyl)-3-[6-(3′,4′-difluoro-5-methoxymethyl-biphenyl-3-yloxy)-hexyl]-phenoxy]-butyric acid]
14 | 1.62 | COCc1cc(OCCCCCCc2cccc(OCCCC(=O)O)c2CCC(=O)O)cc(-c2ccc(C(F)(F)F)cc2)c1 [Example 17, 4-{2-(2-Carboxy-ethyl)-3-[6-(5-methoxymethyl-4′-trifluoromethyl-biphenyl-3-yloxy)-hexyl]-phenoxy}-butyric acid]
15 | 1.47 | COCc1cc(OCCCCCCc2cccc(OCCCC(=O)O)c2CCC(=O)O)cc(-c2cccc(F)c2)c1 [Example 14, 4-{2-(2-Carboxy-ethyl)-3-[6-(3′-fluoro-5-methoxymethyl-biphenyl-3-yloxy)-hexyl]-phenoxy}-butyric acid]
16 | 1.06 | CCOCc1cc(OCCCCCCc2cccc(OCCCC(=O)O)c2CCC(=O)O)cc(-c2ccc3c(c2)OCO3)c1 [Example 25, 4-[3-[6-(3-Benzo[1,3]dioxol-5-yl-5-ethoxymethyl-phenoxy)-hexyl]-2-(2-carboxy-ethyl)-phenoxy]-butyric acid]
17 | 0.37 | CN(C)Cc1cc(OCCCCCCc2cccc(OCCCC(=O)O)c2CCC(=O)O)cc(-c2ccc(C(F)(F)F)cc2)c1 [Example 37, 4-{2-(2-Carboxy-ethyl)-3-[6-(5-dimethylaminomethyl-4′-trifluoromethyl-biphenyl-3-yloxy)-hexyl]phenoxy}-butyric acid]
18 | 0.24 | CN(C)Cc1cc(OCCCCCCc2cccc(OCCCC(=O)O)c2CCC(=O)O)cc(-c2ccc(Cl)cc2)c1 [Example 34, 4-{2-(2-Carboxy-ethyl)-3-[6-(4′-chloro-5-dimethylaminomethyl-biphenyl-3-yloxy)-hexyl]-phenoxy}-butyric acid]
19 | 0.16 | Cc1ccc(-c2cc(CN(C)C)cc(OCCCCCCc3cccc(OCCCC(=O)O)c3CCC(=O)O)c2)cc1F [Example 35, 4-{2-(2-Carboxy-ethyl)-3-[6-(5-dimethylaminomethyl-3′-fluoro-4′-methyl-biphenyl-3-yloxy)-hexyl]-phenoxy}-butyric acid]
20 | 0.14 | CN(C)Cc1cc(OCCCCCCc2cccc(OCCCC(=O)O)c2CCC(=O)O)cc(-c2cccc(F)c2)c1 [Example 36, 4-{2-(2-Carboxy-ethyl)-3-[6-(5-dimethylaminomethyl-3′-fluoro-biphenyl-3-yloxy)-hexyl]-phenoxy}-butyric acid]
21 | 0.11 | CN(C)Cc1cc(OCCCCCCc2cccc(OCCCC(=O)O)c2CCC(=O)O)cc(-c2ccsc2)c1 [Example 31, 4-{2-(2-Carboxy-ethyl)-3-[6-(3-dimethylaminomethyl-5-thiophen-3-yl-phenoxy)-hexyl]-phenoxy}-butyric acid]
22 | 0.11 | CN(C)Cc1cc(OCCCCCCc2cccc(OCCCC(=O)O)c2CCC(=O)O)cc(-c2ccc(F)cc2)c1 [Example 33, 4-{2-(2-Carboxy-ethyl)-3-[6-(5-dimethylaminomethyl-4′-fluoro-biphenyl-3-yloxy)-hexyl]-phenoxy}-butyric acid]
23 | 0.1 | CN(C)Cc1cc(OCCCCCCc2cccc(OCCCC(=O)O)c2CCC(=O)O)cc(-c2ccc3c(c2)OCO3)c1 [Example 30, 4-[3-[6-(3-Benzo[1,3]dioxol-5-yl-5-dimethylaminomethyl-phenoxy)-hexyl]-2-(2-carboxy-ethyl)-phenoxy]-butyric acid]
24 | 0.1 | CN(C)Cc1cc(OCCCCCCc2cccc(OCCCC(=O)O)c2CCC(=O)O)cc(-c2ccccc2)c1 [Example 32, 4-{2-(2-Carboxy-ethyl)-3-[6-(5-dimethylaminomethyl-biphenyl-3-yloxy)-hexyl]-phenoxy}-butyric acid]
